Tested on: HepG2 cells (human hepatic cells)
Experiment: VLDL secretion inhibition experiment in HepG2 cells (apoB100 ELISA)
Assay type: cell-based
Conditions: 30 hours, measurement group/control group, DMSO control = 100, average ± standard error
Description: A sandwich ELISA that recognized human apoB100 in the VLDL as an antigen was used. First, 100 μL of Moab×LDL Apolipoprotein B (ApoB) (manufactured under MONOSAN®) was dispensed in each well of ELISA PLATE, and the plate was sealed with a sterile seal and then allowed to stand still at 4° C. overnight. In the following, all the dispensing mentioned is for a single well. On the next day, 200 μL of Zepto Block (trade name, manufactured by ZeptoMetrix Corporation) was dispensed, and then the above-noted plate was sealed and allowed to stand still for 2 hours at room temperature for blocking. Subsequently, 100 μL of the medium and the VLDL standard solution were dispensed, and then the plate was sealed and allowed to stand still for 1 hour at room temperature. Washing with 200 μL of PBST and absorption using an aspirator were carried out five times in total. Then, 100 μL of Affinity Purified Anti-Apolipoprotein B (manufactured by Rockland Immunochemicals, Inc.) that had been diluted with PBS by 1000 times was dispensed and allowed to stand still for 1 hour at room temperature. After washing similarly to the above, 100 μL of Donkey Anti-goat IgG HRP (manufactured by Promega Corporation) that had been diluted with PBS by 5000 times was dispensed and allowed to stand still for 1 hour at room temperature. […] 100 μL of 1M phosphoric acid solution was added to the above-noted mixture solution, and the absorbance at 450 nm was measured using wallac ARVOsx (trade name, PerkinElmer Life Sciences, PerkinElmer, Inc.). […]
HepG2 was cultured to 80% to 90% confluence in a 100 mm/Collagen-Coated Dish (trade name, manufactured by Iwaki Glass Works, Co.). […] Using this collected medium, the number of living cells were counted, and the Western blotting and the ELISA measurement were carried out similarly to the above. From the result of the ELISA, the ratio of the VLDL secretion amount between the measurement group and the non-treated control group (measurement group/control group) was calculated for each sample.

CC(C)=CCC/C(C)=C/COc1c2ccoc2cc2oc(=O)ccc12 [Bergamottin, bergamottin]
VLDL secretion ratio (%) (10 μM): 63.4 ± 10.94% | VLDL secretion ratio (%) (20 μM): 65.5 ± 13.21% | VLDL secretion ratio (%) (50 μM): 45.9 ± 6.29%

Source: US8257755B2, “Metabolic syndrome-improving agent and medicine, supplement, functional food and food additive containing the same” (ARKRAY, Inc., priority 2005, dated 2012)
